Data reported in patent publication US20060216792A1, “Process for producing 2-0-alpha-d-glucopyranosyl-l-ascorbic acid” (priority 2002, published 2006).

Experiment: properties of crystalline AA-2G (stability, hygroscopicity, solubility)
Format: physicochemical
Description: Different from the case of L-ascorbic acid, AA-2G hardly causes Maillard reaction. […] Also, by using AA-2G together with vitamins E and P, those biological activities can be increased. • (4) It is possible that AA-2G is produced and metabolized in living bodies when L-ascorbic acid and α-glucosyl saccharide are orally in taken. […] AA-2G can be advantageously used as vitamin C-reinforcement, taste-improving agent, acidifier, stabilizer, and the like for vitamin in the form of powder, granule, tablet, and the like, or foods such as cream, chocolate, chewing gum, instant juice, instant seasoning, and the like. • (6) Crystalline AA-2G is substantially non- or hardly hygroscopic.

For `O=C1O[C@H]([C@@H](O)CO)C(O)=C1O[C@H]1O[C@H](CO)[C@@H](O)[C@H](O)[C@H]1O` [AA-2G, 2-O-α-D-glucopyranosyl-L-ascorbic acid], the solubility in water was “high solubility” and the stability (crystalline product of Example 1) was “sufficient stability”.
